# Reference: US6340741B1, “Potent genetic switch allowing regulated gene expression in eukaryotic cells” (University of Lausanne, priority 1998, dated 2002)
# System: p5xGTTI-Luc+ luciferase reporter in BHK 21 cells
# Experiment: Repression of luciferase reporter activated by constitutive GAL4-VP16, transient transfection of BHK 21 cells (Example 2)
# Type: cell-based, hamster
# Settings: 100 ng/ml dox
# Procedure: Baby hamster kidney 21 (BHK 21) cells were cultivated in DMEM (Gibco-BRL) supplemented with 10% FCS (Gibco-BRL). For transfectiors, cells were seeded in 24 well plates at about 40% confluency and allowed to attach to the surface. After washing with PBS, cells were exposed to the transfection mix for 4 hours. Thereafter, the transfection mix was replaced by medium which contained, where indicated, 100 ng/ml doxycycline hydrochloride (Sigma #D9891). Generally, medium was replaced every 24 hours and cells were harvested 48 hours post-transfection.
# For luciferase and β-galactosidase measurements, cell extracts were prepared as follows. […] After a delay of 2 sec light emission was measured for 2 sec.
# Colorimetric determination of β-galactosidase activity was performed by adding 150 μl CPRG buffer (60 mM Na2HPO4 7 H2O, 40 mM NaH2PO4, 10 mM KCl, 1 mM MgSO4, 50 mM β-mercaptoethanol) and 20 μl CPRG solution (Boehringer Mannheim #884308, 4 mg/ml in H2O) to the remaining 30 μl cell extract in the 96 well plate. […] Absorbance was measured at 575 nm in a plate reader (Spectramax 340, Molecular Devices) and samples were normalized to wells in which lysis buffer was assayed.
# Relative light units were calculated by normalizing luciferase for β-galactosidase activity. […]
structure (smiles),measurement,value
"C[C@H]1c2cccc(O)c2C(=O)C2=C(O)[C@]3(O)C(=O)C(C(N)=O)=C(O)[C@@H](N(C)C)[C@@H]3[C@@H](O)[C@@H]21.Cl [dox, doxycycline hydrochloride]",effect of addition of the dox ligand on repression,abolished the repression
